Data taken from US8192962B2, “Processes for detecting toxic substances” (Daikin Industries, Ltd., priority 2001, dated 2012).

System: Unknown protein yeast genes
Assay: DNA chip mRNA expression in yeast, unknown protein yeast genes (Table 1)
Type: cell-based, Saccharomyces cerevisiae S288C
Outline: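 First, S288C yeast grown in YPD at 25° C. are dosed in log phase with one toxicant (growth-inhibiting, not lethal) for 2 h. Next, total RNA is extracted and poly(A) mRNA isolated and reverse-transcribed with Cy3/Cy5-dUTP. Finally, whole-genome chip fluorescence is read relative to unexposed cells.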

Cl[C@H]1[C@H](Cl)[C@@H](Cl)[C@@H](Cl)[C@H](Cl)[C@H]1Cl [(7), γ-hexachlorocyclohexane]
The level of expressed mRNA in the presence of chemical substance/The level of expressed mRNA in the absence of chemical substance (yeast gene YKL195W, incubated two hours with chemical substance): 2.1
The level of expressed mRNA in the presence of chemical substance/The level of expressed mRNA in the absence of chemical substance (yeast gene YKR091W, incubated two hours with chemical substance): 1.3
The level of expressed mRNA in the presence of chemical substance/The level of expressed mRNA in the absence of chemical substance (yeast gene YLR054C, incubated two hours with chemical substance): 1.1
The level of expressed mRNA in the presence of chemical substance/The level of expressed mRNA in the absence of chemical substance (yeast gene YLR149C, incubated two hours with chemical substance): 1.6
The level of expressed mRNA in the presence of chemical substance/The level of expressed mRNA in the absence of chemical substance (yeast gene YLR152C, incubated two hours with chemical substance): 1.4
The level of expressed mRNA in the presence of chemical substance/The level of expressed mRNA in the absence of chemical substance (yeast gene YLR194C, incubated two hours with chemical substance): 1.0
The level of expressed mRNA in the presence of chemical substance/The level of expressed mRNA in the absence of chemical substance (yeast gene YLR324W, incubated two hours with chemical substance): 1.0
The level of expressed mRNA in the presence of chemical substance/The level of expressed mRNA in the absence of chemical substance (yeast gene YLR350W, incubated two hours with chemical substance): 1.2
The level of expressed mRNA in the presence of chemical substance/The level of expressed mRNA in the absence of chemical substance (yeast gene YLR387C, incubated two hours with chemical substance): 1.1
The level of expressed mRNA in the presence of chemical substance/The level of expressed mRNA in the absence of chemical substance (yeast gene YLR460C): 1.1
The level of expressed mRNA in the presence of chemical substance/The level of expressed mRNA in the absence of chemical substance (yeast gene YML117W, incubated two hours with chemical substance): 0.7
The level of expressed mRNA in the presence of chemical substance/The level of expressed mRNA in the absence of chemical substance (yeast gene YMR009W, incubated two hours with chemical substance): 1.9
The level of expressed mRNA in the presence of chemical substance/The level of expressed mRNA in the absence of chemical substance (yeast gene YMR067C, incubated two hours with chemical substance): 1.2
The level of expressed mRNA in the presence of chemical substance/The level of expressed mRNA in the absence of chemical substance (yeast gene YMR090W): 2.7
The level of expressed mRNA in the presence of chemical substance/The level of expressed mRNA in the absence of chemical substance (yeast gene YMR095C, incubated two hours with chemical substance): 1.2
The level of expressed mRNA in the presence of chemical substance/The level of expressed mRNA in the absence of chemical substance (yeast gene YMR097C, incubated two hours with chemical substance): 1.5
The level of expressed mRNA in the presence of chemical substance/The level of expressed mRNA in the absence of chemical substance (yeast gene YMR102C, incubated two hours with chemical substance): 1.8
The level of expressed mRNA in the presence of chemical substance/The level of expressed mRNA in the absence of chemical substance (yeast gene YMR107W, incubated two hours with chemical substance): 1.2
The level of expressed mRNA in the presence of chemical substance/The level of expressed mRNA in the absence of chemical substance (yeast gene YMR180C, incubated two hours with chemical substance): 1.7
The level of expressed mRNA in the presence of chemical substance/The level of expressed mRNA in the absence of chemical substance (yeast gene YMR184W, incubated two hours with chemical substance): 1.6
The level of expressed mRNA in the presence of chemical substance/The level of expressed mRNA in the absence of chemical substance (yeast gene YMR191W, incubated two hours with chemical substance): 2.0
The level of expressed mRNA in the presence of chemical substance/The level of expressed mRNA in the absence of chemical substance (yeast gene YMR295C, incubated two hours with chemical substance): 1.3
The level of expressed mRNA in the presence of chemical substance/The level of expressed mRNA in the absence of chemical substance (yeast gene YMR316W, incubated two hours with chemical substance): 2.0
The level of expressed mRNA in the presence of chemical substance/The level of expressed mRNA in the absence of chemical substance (yeast gene YNL044W, incubated two hours with chemical substance): 0.9
The level of expressed mRNA in the presence of chemical substance/The level of expressed mRNA in the absence of chemical substance (yeast gene YNL074C, incubated two hours with chemical substance): 1.1
The level of expressed mRNA in the presence of chemical substance/The level of expressed mRNA in the absence of chemical substance (yeast gene YNL092W, incubated two hours with chemical substance): 1.6
The level of expressed mRNA in the presence of chemical substance/The level of expressed mRNA in the absence of chemical substance (yeast gene YNL115C, incubated two hours with chemical substance): 2.4
The level of expressed mRNA in the presence of chemical substance/The level of expressed mRNA in the absence of chemical substance (yeast gene YNL156C, incubated two hours with chemical substance): 1.9
The level of expressed mRNA in the presence of chemical substance/The level of expressed mRNA in the absence of chemical substance (yeast gene YNL234W, incubated two hours with chemical substance): 1.2
The level of expressed mRNA in the presence of chemical substance/The level of expressed mRNA in the absence of chemical substance (yeast gene YNL281W, incubated two hours with chemical substance): 1.2
The level of expressed mRNA in the presence of chemical substance/The level of expressed mRNA in the absence of chemical substance (yeast gene YNL305C, incubated two hours with chemical substance): 1.7
The level of expressed mRNA in the presence of chemical substance/The level of expressed mRNA in the absence of chemical substance (yeast gene YNR068C, incubated two hours with chemical substance): 1.8
The level of expressed mRNA in the presence of chemical substance/The level of expressed mRNA in the absence of chemical substance (yeast gene YOL032W, incubated two hours with chemical substance): 1.4
The level of expressed mRNA in the presence of chemical substance/The level of expressed mRNA in the absence of chemical substance (yeast gene YOL036W, incubated two hours with chemical substance): 1.0
The level of expressed mRNA in the presence of chemical substance/The level of expressed mRNA in the absence of chemical substance (yeast gene YOL047C, incubated two hours with chemical substance): 1.3
The level of expressed mRNA in the presence of chemical substance/The level of expressed mRNA in the absence of chemical substance (yeast gene YOL071W, incubated two hours with chemical substance): 2.0
The level of expressed mRNA in the presence of chemical substance/The level of expressed mRNA in the absence of chemical substance (yeast gene YOL082W, incubated two hours with chemical substance): 2.5
The level of expressed mRNA in the presence of chemical substance/The level of expressed mRNA in the absence of chemical substance (yeast gene YOL083W, incubated two hours with chemical substance): 3.1
The level of expressed mRNA in the presence of chemical substance/The level of expressed mRNA in the absence of chemical substance (yeast gene YOL117W, incubated two hours with chemical substance): 1.6
The level of expressed mRNA in the presence of chemical substance/The level of expressed mRNA in the absence of chemical substance (yeast gene YOL131W, incubated two hours with chemical substance): 1.3
The level of expressed mRNA in the presence of chemical substance/The level of expressed mRNA in the absence of chemical substance (yeast gene YOL150C): 2.4
The level of expressed mRNA in the presence of chemical substance/The level of expressed mRNA in the absence of chemical substance (yeast gene YOL162W, incubated two hours with chemical substance): 2.0
The level of expressed mRNA in the presence of chemical substance/The level of expressed mRNA in the absence of chemical substance (yeast gene YOR019W, incubated two hours with chemical substance): 2.8
The level of expressed mRNA in the presence of chemical substance/The level of expressed mRNA in the absence of chemical substance (yeast gene YOR197W, incubated two hours with chemical substance): 0.9
The level of expressed mRNA in the presence of chemical substance/The level of expressed mRNA in the absence of chemical substance (yeast gene YPL087W, incubated two hours with chemical substance): 4.2
The level of expressed mRNA in the presence of chemical substance/The level of expressed mRNA in the absence of chemical substance (yeast gene YPL196W, incubated two hours with chemical substance): 2.4
The level of expressed mRNA in the presence of chemical substance/The level of expressed mRNA in the absence of chemical substance (yeast gene YPL206C, incubated two hours with chemical substance): 1.2
The level of expressed mRNA in the presence of chemical substance/The level of expressed mRNA in the absence of chemical substance (yeast gene YPL222W, incubated two hours with chemical substance): 1.1
The level of expressed mRNA in the presence of chemical substance/The level of expressed mRNA in the absence of chemical substance (yeast gene YPR023C, incubated two hours with chemical substance): 1.2
The level of expressed mRNA in the presence of chemical substance/The level of expressed mRNA in the absence of chemical substance (yeast gene YPR151C, incubated two hours with chemical substance): 4.4
